25 compounds from US20050209278A1, “Piperidinyl- and piperazinyl-sulfonylmethyl hydroxamic acids and their use as protease inhibitors” (priority 2002, published 2005) can be followed below.

For one experiment, the target named is T1, MMP-14 (Homo sapiens, UniProt P50281).
T1 construct: The catalytic domain enzyme was expressed in E. coli inclusion bodies, solubilized in urea; made in house
The experiment is described as follows: In vitro MMP inhibition, Ki determination (fluorogenic substrate II). Type of experiment: biochemical. As for the experimental part: (§1) Several hydroxamic acids and salts thereof were analyzed in in vitro assays to determine their ability to inhibit the MMP cleavage of peptide substrates. […] and IC50 constants were calculated from the assayed hydroxamic acid-MMP interactions.
(§2) Human recombinant MMP-1, MMP-2, MMP-9, MMP-13, and MMP-14 were used in this assay. All enzymes were prepared in Assignee's laboratories following usual laboratory procedures. Protocols for the preparation and use of these enzymes are available in the scientific literature. See, e.g., Enzyme Nomenclature (Academic Press, San Diego, Calif., 1992) (and the citations therein). See also, Freije et al., “Molecular cloning and expression of collagenase-3, a novel human matrix metalloproteinase produced by breast carcinomas,” J Biol. Chem., 269(24), 16766-16773 (1994).
The MMP-14 full length cDNA was provided by Dr. Gregory Goldberg of Washington University (St. Louis, Mo.). The catalytic domain enzyme was expressed in E. coli inclusion bodies, solubilized in urea, purified on a preparative […] reverse phase HPLC column, and then refolded in the presence of zinc acetate and purified for use.
(§3) All MMPs were activated using 4-aminophenylmercuric acetate (“APMA”, Sigma Chemical, St. Louis, Mo.) or trypsin. MMP-9 also was activated using human recombinant MMP-3 (purified in Assignee's laboratory following standard cloning and purification techniques).
(§4) Two fluorogenic, methoxycoumarin-containing polypeptide substrates were used in the MMP inhibition assays: [drawing 427] Here, “Dpa” is 3-(2,4-dinitrophenyl)-L-2,3-diaminopropionyl group, and “MCA” is 7-methoxycoumarin-4-yl acetyl. Substrate (I) was purchased from Baychem (Redwood City, Calif.), and substrate II was prepared Assignee's laboratory. Substrate I was used in the IC50 determination assays, while substrate II was used in the Ki determination assays. In the absence of MMP inhibitory activity, either substrate is cleaved at the Gly-Leu peptide bond. This cleavage separates the highly fluorogenic peptide from the 2,4-dinitrophenyl quencher, thus resulting in increase of fluorescent intensity.
(§5) The stock solutions of the assayed hydroxamic acids (or salts thereof) were prepared in 1% dimethyl sulfoxide (DMSO). These stock solutions were diluted in Buffer A (100 mM Tris-HCl, 100 mM NaCl, 10 mM CaCl2, 0.05% polyoxyethylene 23 lauryl ether, pH 7.5) to obtain solutions with different hydroxamic acid concentrations, i.e., assay solutions with different concentrations of the assayed MMP inhibitory compound. The experiment controls contained the same amount of Buffer A/DMSO as the assayed sample, but contained no hydroxamic acid (or salt thereof).
(§6) The assays from which the Ki determinations were made were performed as follows. The assayed hydroxamic acid samples were incubated in separate wells of untreated white polystyrene plates (Nunc Nalgene International, Rochester, N.Y.), and analyzed on a Tecan SpectraFlour Plus plate reader. The excitation wavelength was 330 nm, and the emission wavelength—420 nm. All samples (assayed hydroxamic acids and controls) were incubated in separate plate wells at room temperature for 1 hr in the presence of 4 μM of MMP substrate (II). In the absence of MMP inhibitory activity, substrate II was cleaved at the Gly-Leu bond resulting in an increase of relative fluorescence. Inhibition was observed as a reduced rate of this increase in relative fluorescence. The various hydroxamic acids were analyzed using a single low enzyme concentration with a single substrate concentration fixed at or below the Km. This protocol is a modification of method by Knight et al., FEBS Lett., 296(3), 263-266 (1992). Apparent inhibitory constants were determined by non-linear regression of reaction velocity as a function of inhibitor and enzyme concentration using Morrison's equation, as described by Kuzmic, Anal. Biochem. 286, 45-50 (2000).

A further experiment deals with T2, MMP-13 (Homo sapiens, UniProt P45452).
T2 construct: made in house; host or cells: baculovirus / insect cells
Described as above. In kind it is biochemical. As for the experimental part:
as §1, §2
The MMP-13 was obtained as a proenzyme from a full-length cDNA clone using baculovirus, as described by V. A. Luckow, “Insect Cell Expression Technology,” Protein Engineering: Principles and Practice, pp. 183-218 (edited by J. L. Cleland et al., Wiley-Liss, Inc., 1996). The expressed proenzyme was first purified over a heparin agarose column, and then over a chelating zinc chloride column. The proenzyme was then activated by APMA for use in the assay. […] See also, O'Reilly et al, Baculovirus Expression Vectors: A Laboratory Manual (W.H. Freeman and Co., New York, N.Y., 1992). See also, King et al., The Baculovirus Expression System: A Laboratory Guide (Chapman & Hall, London, England, 1992).
as §3, §4, §5
as §6, with “Km.” for “Km. This protocol is a modification of method by Knight et al., FEBS Lett., 296(3), 263-266 (1992). Apparent inhibitory constants were determined by non-linear regression of reaction velocity as a function of inhibitor and enzyme concentration using Morrison's equation, as described by Kuzmic, Anal. Biochem. 286, 45-50 (2000).”

The mark [1] stands for this setting: human recombinant enzyme (catalytic domain), 4 μM substrate II, room temperature, 1 hr, read-out: MMP-14 Ki.
Where [2] appears, read: human recombinant enzyme, 4 μM substrate II, room temperature, 1 hr, read-out: MMP-13 Ki.
Where [3] appears, read: value not in parenthesis, read-out: MMP-14 Ki.
[4] abbreviates: value not in parenthesis, read-out: MMP-13 Ki.
Setting [5] is: MMP-14 Ki, value not in parenthesis.
[6] abbreviates: MMP-13 Ki, value not in parenthesis.

Counter-ions that a name gives are not always drawn. Like-named read-outs stand apart in the source and are kept apart here.

Regarding `O=C(NO)C1(S(=O)(=O)N2CCN(c3ccc(CCC(F)(F)C(F)(F)F)cc3)CC2)CCOCC1` [Example 17, N-hydroxy-4-({4-[4-(3,3,4,4,4-pentafluorobutyl)phenyl]piperazin-1-yl}sulfonyl)tetrahydro-2H-pyran-4-carboxamide Hydrochloride], the figures for the inhibitory constant (Ki) on MMP-14 (setting [1]) and at MMP-13 (setting [2]) were 7970 nM and 0.328 nM, respectively.

As to `O=C(NO)C1(S(=O)(=O)N2CCC(c3ccc(CCC(F)(F)C(F)(F)F)cc3)CC2)CCOCC1` [Example 18, N-hydroxy-4-({4-[4-(3,3,4,4,4-pentafluorobutyl)phenyl]piperidin-1-yl}sulfonyl)tetrahydro-2H-pyran-4-carboxamide], the inhibitory constant (Ki) on MMP-14 (setting [1]) stood at 1770 nM; at MMP-13 (setting [2]), 0.444 nM.

With `CCCCc1ccc(C2CCN(S(=O)(=O)C3(C(=O)NO)CCOCC3)CC2)s1` [Example 19, 4-{[4-(5-butylthien-2-yl)piperidin-1-yl]sulfonyl}-N-hydroxytetrahydro-2H-pyran-4-carboxamide], the values for the Ki at MMP-14 (setting [1]) and on MMP-13 (setting [2]) were 2190 nM and 5.47 nM, respectively.

Consider `COCCN1CCC(C(=O)NO)(S(=O)(=O)N2CCC(c3ccc(OCCCC(F)(F)F)cc3)CC2)CC1` [Example 20, N-hydroxy-1-(2-methoxyethyl)-4-({4-[4-(4,4,4-trifluorobutoxy)phenyl]piperidin-1-yl}sulfonyl)piperidine-4-carboxamide Hydrochloride], for which the inhibitory constant (Ki) at MMP-14 (setting [1]) is 2670 nM; at MMP-13 (setting [2]) it was 0.15 nM.

Take `CCCCCc1ccc(N2CCN(S(=O)(=O)C3(C(=O)NO)CCN(C(=O)C(F)(F)F)CC3)CC2)cc1` [Example 21, N-hydroxy-4-{[4-(4-pentylphenyl)piperazin-1-yl]sulfonyl}-1-(trifluoroacetyl)piperidine-4-carboxamide Hydrochloride]: the Ki was 6910 nM at MMP-14 (setting [1]) and 6.17 nM at MMP-13 (setting [2]).

Take `CCCCCc1ccc(N2CCN(S(=O)(=O)C3(C(=O)NO)CCN(CC)CC3)CC2)cc1F` [Example 22, 1-ethyl-4-{[4-(3-fluoro-4-pentylphenyl)piperazin-1-yl]sulfonyl}-N-hydroxypiperidine-4-carboxamine Hydrochloride]: the results for the inhibition constant Ki at MMP-14 (setting [1]) and at MMP-13 (setting [2]) were 9320 nM and 2.78 nM, respectively.

With `CCCCCc1ccc(N2CCN(S(=O)(=O)C3(C(=O)NO)CCOCC3)CC2)c(F)c1` [Example 23, 4-{[4-(2-fluoro-4-pentylphenyl)piperazin-1-yl]sulfonyl}-N-hydroxytetrahydro-2H-pyran-4-carboxamide Hydrochloride], the Ki was above 10000 nM at MMP-14 (setting [1]) and 4.17 nM on MMP-13 (setting [2]).

With `CCCCc1ccc(C2CCN(S(=O)(=O)C3(C(=O)NO)CCN(C4CC4)CC3)CC2)nc1` [Example 24, 4-{[4-(5-butylpyridin-2-yl)piperidin-1-yl]sulfonyl}-1-cyclopropyl-N-hydroxypiperidine-4-carboxamide Hydrochloride], the Ki at MMP-14 (setting [1]) turned out to be 2900 nM; on MMP-13 (setting [2]), 0.54 nM.

Take `O=C(NO)C1(S(=O)(=O)N2CCC(c3ccc(OCC(F)(F)F)cc3)CC2)CCN(C2CC2)CC1` [Example 25, 1-cyclopropyl-N-hydroxy-4-({4-[4-(2,2,2-trifluoroethoxy)phenyl]piperidin-1-yl}sulfonyl)piperidine-4-carboxamide Hydrochloride]: the inhibitory constant (Ki) stood at 5380 nM at MMP-14 (setting [1]) and 0.97 nM at MMP-13 (setting [2]).

As to `CCCCCCCCC1CCN(S(=O)(=O)C2(C(=O)NO)CCOCC2)CC1` [Example 26, 4-(4-octyl-piperidine-1-sulfonyl)-tetrahydro-pyran-4-carboxylic Acid Hydroxyamide], the Ki stood at 657 nM at MMP-14 (setting [1]) and 0.51 nM on MMP-13 (setting [2]).

`O=C(NO)C1(S(=O)(=O)N2CCC(c3cnc(OCC(F)(F)C(F)(F)F)cn3)CC2)CCOCC1` [Example 27]: the Ki worked out at 6200 nM on MMP-14 (setting [1]) and 0.5 nM at MMP-13 (setting [2]).

As to `CCCCCc1cnc(N2CCN(S(=O)(=O)C3(C(=O)NO)CCOCC3)CC2)s1` [Example 56], the figures for the inhibition constant Ki at MMP-14 (setting [3]) and on MMP-13 (setting [4]) were 795 nM and 1.74 nM, respectively.

`O=C(NO)C1(S(=O)(=O)N2CCN(c3ccc(-c4ccc(Cl)cc4)cn3)CC2)CCOCC1` [Example 60]: the Ki at MMP-14 (setting [3]) was 328 nM; on MMP-13 (setting [4]), 0.32 nM.

On to `O=C(NO)C1(S(=O)(=O)N2CCN(c3ccc(COCC(F)(F)C(F)(F)C(F)(F)C(F)F)cc3)CC2)CCOCC1` [Example 68], for which the Ki at MMP-14 (setting [5]) was above 10000 nM; at MMP-13 (setting [6]), 1.85 nM.

As to `O=C(NO)C1(S(=O)(=O)N2CCN(c3ccc(COCC(F)(F)C(F)(F)C(F)(F)F)cc3)CC2)CCOCC1` [Example 69], the Ki at MMP-14 (setting [5]) was above 10000 nM; at MMP-13 (setting [6]) it was 2.11 nM.

In the case of `C=CCCOC(=O)N1CCC(C(=O)NO)(S(=O)(=O)N2CCN(c3ccc(OCCCC)cc3)CC2)CC1` [Example 101], the Ki stood at 4330 nM on MMP-14 (setting [3]) and 0.92 nM at MMP-13 (setting [4]).

Turning to `COCCN1CCC(C(=O)NO)(S(=O)(=O)N2CCN(c3ccc(OCCCC(F)(F)F)cc3F)CC2)CC1` [Example 102], the inhibitory constant (Ki) at MMP-14 (setting [3]) was 7130 nM; at MMP-13 (setting [4]) it was 0.19 nM.

Consider `O=C(NO)C1(S(=O)(=O)N2CCN(c3ncc(Br)cn3)CC2)CCOCC1` [Example 103], for which the Ki at MMP-14 (setting [3]) turned out to be 227 nM; on MMP-13 (setting [4]), 3.48 nM.

As to `O=C(NO)C1(S(=O)(=O)N2CCN(c3ncc(Br)cn3)CC2)CCOCC1` [Example 104], the Ki on MMP-14 (setting [3]) turned out to be 305 nM; at MMP-13 (setting [4]) it was 3.55 nM.

Regarding `O=C(NO)C1(S(=O)(=O)N2CCN(c3ncccn3)CC2)CCOCC1` [Example 106], the inhibition constant (Ki) on MMP-14 (setting [3]) came to 7510 nM; on MMP-13 (setting [4]), 27.2 nM.

In the case of `O=C(NO)C1(S(=O)(=O)N2CCN(c3ncccn3)CC2)CCOCC1` [Example 107], the values for the inhibition constant Ki on MMP-14 (setting [3]) and on MMP-13 (setting [4]) were 6000 nM and 22.4 nM, respectively.

With `COc1ccc(N2CCN(S(=O)(=O)C3(C(=O)NO)CCOCC3)CC2)nc1` [Example 108], the results for the Ki at MMP-14 (setting [3]) and at MMP-13 (setting [4]) were above 10000 nM and 478 nM, respectively.

As to `COc1ccc(N2CCN(S(=O)(=O)C3(C(=O)NO)CCOCC3)CC2)nc1` [Example 109], the Ki was above 10000 nM on MMP-14 (setting [3]) and 472 nM at MMP-13 (setting [4]).

Consider `CCCCCCCCCc1cnc(N2CCN(S(=O)(=O)C3(C(=O)NO)CCOCC3)CC2)nc1` [Example 110], for which the Ki at MMP-14 (setting [3]) is above 10000 nM; on MMP-13 (setting [4]), 3.23 nM.

As for `CCCCCCCCCc1cnc(N2CCN(S(=O)(=O)C3(C(=O)NO)CCOCC3)CC2)nc1` [Example 111], the figures for the Ki at MMP-14 (setting [3]) and on MMP-13 (setting [4]) were above 10000 nM and 2.58 nM, respectively.
